Assay results published in US20080102497A1, “ENZYMATIC HYDROLYSIS OF STARCH” (priority 2006, published 2008).
Where two headings read alike, the source gives them in different places.

Tests used:
[1] = system: glucoamylase from Rhizopus sp.; experiment: temperature effect on conversion of raw corn starch; assay type: biochemical; details: 1 mM Mn^++; for % Conversion: 10 min, raw corn starch, pH 5.3
Procedure: An enzyme solution of the glucoamylase from Rhizopus sp. […] Thereafter, 50 μl of the enzyme solution was added to each of four samples containing 15 mg raw corn starch and incubated at 22° C., 32° C., 40° C. or 50° C., respectively, for 10 minutes.

β-amylase from barley = β-amylase from barley (Hordeum vulgare, UniProt P16098); experiment: pH effect on hydrolysis of cooked dent corn starch; assay type: biochemical; details: 1 mM Mn^++; for Relative Activity: cooked dent corn starch 0.5%, 37° C., 10 min, control at pH 5 = 100
Procedure: (§1) The separate reaction mixtures were then incubated at 37° C. for 10 minutes. The control reaction mixture contained enzyme, buffer, and starch but no manganese ion. The starch hydrolysis reaction was stopped by combining the reaction mixture with a solution containing DNSA and heating for 30 min at 85° C. The absorbance of the control and test samples was measured at 562 nm to monitor the amount of reducing sugar in each sample.

[2] = system: enzyme mixture of purified glucoamylase from mushroom and purified α-amylase from barley; experiment: hydrolysis of raw corn starch by enzyme mixture, reducing sugar by DNSA; assay type: biochemical; details: summary of Table 2
Procedure: Enzyme mixture was also pre-incubated with 10 mM Fe^++, Cu^++, Ca^++, Mg^++, or disodium ethylenediamine-tetraacetic acid (EDTA). Thereafter, 40 μl of each pre-incubation solution was added to 15 mg raw corn starch, and the reaction mixture incubated at 37° C. for 20 minutes. The control reaction mixture contained substrate, enzyme, and buffer but no additional metal ions. The starch hydrolysis reaction was stopped by combining the reaction mixture with a solution containing 3,5 dinitrosalicylic acid (DNSA) and heating for 30 min at 85° C. The absorbance of the control and test samples was measured at 562 nm to monitor the amount of reducing sugar in each sample.

[3] = biological target: T1, glucoamylase from Aspergillus Niger (Aspergillus niger, UniProt P69328); details: for Relative Activity: raw corn starch, pH 5.3, 37° C., 20 min
Procedure: Thereafter, 40 μl of each pre-incubation solution was added to 15 mg raw corn starch, and the reaction mixture incubated at 37° C. for 20 minutes. The control reaction mixture contained substrate, enzyme, and buffer but no manganese ion. The starch hydrolysis reaction was stopped by combining the reaction mixture with a solution containing DNSA and heating for 30 min at 85° C. The absorbance of the control and test samples was measured at 562 nm to monitor the amount of reducing sugar in each sample.

[4] = biological target: T1, glucoamylase from Aspergillus Niger; details: pH 5.2, 37° C., 10 min
Procedure: as §1, with “were” for “were then”

[5] = system: enzyme mixture of purified glucoamylase from mushroom and purified α-amylase from barley; experiment: hydrolysis of raw corn starch by enzyme mixture, reducing sugar by DNSA; assay type: biochemical; details: pH 5.3, 37° C., 20 min
[6] = biological target: T1, glucoamylase from Aspergillus Niger; details: cooked dent corn starch 0.5%, pH 5.2, 37° C., 10 min
Procedure: as §1, with “mixtures were incubated at” for “mixtures were then incubated at”, “control reaction mixtures contained enzyme,” for “control reaction mixture contained enzyme,”

[7] = biological target: T2, α-amylase from human saliva (Homo sapiens, UniProt P0DUB6); experiment: hydrolysis of cooked dent corn starch; assay type: biochemical; details: cooked dent corn starch 0.5%, pH 5.2, 37° C., 10 min
T2 construct: the α-amylase from human saliva; from tissue; host or cells: human saliva
T2 sequence (P0DUB6 16-511): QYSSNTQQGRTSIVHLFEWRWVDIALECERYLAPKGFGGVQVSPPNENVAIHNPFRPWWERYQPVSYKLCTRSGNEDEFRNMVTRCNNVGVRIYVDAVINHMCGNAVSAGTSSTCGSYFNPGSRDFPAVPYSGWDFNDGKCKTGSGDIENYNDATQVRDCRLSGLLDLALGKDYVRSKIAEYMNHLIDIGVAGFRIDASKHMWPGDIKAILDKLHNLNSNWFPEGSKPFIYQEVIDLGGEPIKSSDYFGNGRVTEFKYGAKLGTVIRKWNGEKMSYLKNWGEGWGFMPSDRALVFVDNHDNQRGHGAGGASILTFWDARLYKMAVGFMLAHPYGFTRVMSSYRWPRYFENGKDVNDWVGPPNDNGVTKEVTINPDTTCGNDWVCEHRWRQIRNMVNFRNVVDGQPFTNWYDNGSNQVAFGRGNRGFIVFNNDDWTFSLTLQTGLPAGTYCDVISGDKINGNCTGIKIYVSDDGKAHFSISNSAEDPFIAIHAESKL
Procedure: The separate reaction mixtures were incubated at 37° C. for 10 minutes. The control reaction mixtures contained enzyme, buffer, and starch but no manganese ion. The starch hydrolysis reaction was stopped by combining the reaction mixture with a solution containing DNSA and heating for 30 min at 85° C. The absorbance of the control and test samples was measured at 562 nm to monitor the amount of reducing sugar in each sample.

T1 sequence (P69328 25-640): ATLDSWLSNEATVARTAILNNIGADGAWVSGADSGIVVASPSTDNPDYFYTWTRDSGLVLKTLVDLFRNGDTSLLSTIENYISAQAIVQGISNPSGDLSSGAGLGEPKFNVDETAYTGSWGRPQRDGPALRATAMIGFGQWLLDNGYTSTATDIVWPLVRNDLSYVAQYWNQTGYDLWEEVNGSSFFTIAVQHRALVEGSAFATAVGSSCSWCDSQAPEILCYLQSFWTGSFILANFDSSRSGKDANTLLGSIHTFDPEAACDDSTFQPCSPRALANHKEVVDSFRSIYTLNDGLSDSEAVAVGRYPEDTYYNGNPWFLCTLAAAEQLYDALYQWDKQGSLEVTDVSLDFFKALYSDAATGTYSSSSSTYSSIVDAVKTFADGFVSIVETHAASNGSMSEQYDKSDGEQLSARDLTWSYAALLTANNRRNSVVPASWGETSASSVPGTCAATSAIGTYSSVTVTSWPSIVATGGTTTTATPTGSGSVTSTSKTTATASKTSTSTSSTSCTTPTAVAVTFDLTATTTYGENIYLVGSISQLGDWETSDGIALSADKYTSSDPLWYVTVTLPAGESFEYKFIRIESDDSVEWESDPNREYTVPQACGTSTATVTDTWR
Sequence of β-amylase from barley (P16098 whole entry): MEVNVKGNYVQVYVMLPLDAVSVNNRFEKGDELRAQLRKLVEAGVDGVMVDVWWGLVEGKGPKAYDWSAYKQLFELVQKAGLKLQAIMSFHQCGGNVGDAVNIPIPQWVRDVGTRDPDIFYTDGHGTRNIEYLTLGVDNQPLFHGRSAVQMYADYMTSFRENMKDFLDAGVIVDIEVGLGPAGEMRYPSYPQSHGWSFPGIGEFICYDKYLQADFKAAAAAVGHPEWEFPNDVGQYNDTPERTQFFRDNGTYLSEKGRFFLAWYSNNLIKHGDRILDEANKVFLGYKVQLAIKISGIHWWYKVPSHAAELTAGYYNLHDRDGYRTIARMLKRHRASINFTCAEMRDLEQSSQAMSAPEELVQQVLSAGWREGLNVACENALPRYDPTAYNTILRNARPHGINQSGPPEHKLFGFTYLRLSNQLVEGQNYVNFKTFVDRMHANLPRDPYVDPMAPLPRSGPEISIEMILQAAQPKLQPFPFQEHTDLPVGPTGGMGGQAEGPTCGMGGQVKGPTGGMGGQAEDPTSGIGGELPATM

Question: What does the source list for [Mn+2] [Mn^++, manganese ions]?
Answer: temperature dependence of Mn^++ activation (in words) ([1]; 22-50° C.): occurs at a wide temperature range; % Conversion ([1]; 22° C.): 0.026%; % Conversion ([1]; 32° C.): 0.064%; % Conversion ([1]; 40° C.): 0.152%; % Conversion ([1]; 50° C.): 0.274%; pH range of greatest Mn^++ induced enhancement (β-amylase from barley; cooked dent corn starch, pH 3-8 tested): 5.0-6.0; Relative Activity (β-amylase from barley; pH 3): 0%; Relative Activity (β-amylase from barley; pH 4): 105.8%; Relative Activity (β-amylase from barley; pH 5): 173.1%; Relative Activity (β-amylase from barley; pH 6): 176.9%; Relative Activity (β-amylase from barley; pH 7): 165.4%; Relative Activity (β-amylase from barley; pH 8): 74%; effect on hydrolysis of raw corn starch (in words) [2]: enhances the hydrolysis of raw corn starch; Relative Activity ([3]; 0.01 mM Mn^++): 94.4%; Relative Activity ([3]; 0.1 mM Mn^++): 111.2%; Relative Activity ([3]; 1 mM Mn^++): 127.1%; Relative Activity ([3]; 10 mM Mn^++): 160.6%; effect on hydrolysis of raw corn starch (in words) ([3]; summary of Table 4): enhances the hydrolysis of raw corn starch; Relative Activity ([4]; 0.01 mM Mn^++, cooked dent corn starch 0.5%): 113.3%; Relative Activity ([4]; 0.01 mM Mn^++, cooked high-amylose V corn starch 0.5%): 119.2%; Relative Activity ([4]; 0.01 mM Mn^++, cooked soluble corn starch 0.5%): 119.1%; Relative Activity ([4]; 0.01 mM Mn^++, cooked waxy corn starch 0.5%): 113.0%; Relative Activity ([4]; 0.1 mM Mn^++, cooked dent corn starch 0.5%): 126.1%; Relative Activity ([4]; 0.1 mM Mn^++, cooked high-amylose V corn starch 0.5%): 130.9%; Relative Activity ([4]; 0.1 mM Mn^++, cooked soluble corn starch 0.5%): 129.1%; Relative Activity ([4]; 0.1 mM Mn^++, cooked waxy corn starch 0.5%): 130.1%; Relative Activity ([4]; 1 mM Mn^++, cooked dent corn starch 0.5%): 148.4%; Relative Activity ([4]; 1 mM Mn^++, cooked high-amylose V corn starch 0.5%): 141.3%; Relative Activity ([4]; 1 mM Mn^++, cooked soluble corn starch 0.5%): 144.8%; Relative Activity ([4]; 1 mM Mn^++, cooked waxy corn starch 0.5%): 147.2%; Relative Activity ([4]; 10 mM Mn^++, cooked dent corn starch 0.5%): 186.9%; Relative Activity ([4]; 10 mM Mn^++, cooked high-amylose V corn starch 0.5%): 193.1%; Relative Activity ([4]; 10 mM Mn^++, cooked soluble corn starch 0.5%): 178.3%; Relative Activity ([4]; 10 mM Mn^++, cooked waxy corn starch 0.5%): 200.3%; Relative Activity ([5]; 0.01 mM Mn^++): 106.7%; Relative Activity ([5]; 0.1 mM Mn^++): 124.7%; Relative Activity ([5]; 1 mM Mn^++): 142.6%; Relative Activity ([5]; 10 mM Mn^++): 143.5%; Relative Activity ([6]; 0.01 mM Mn^++): 113.3%; Relative Activity ([6]; 0.1 mM Mn^++): 126.1%; Relative Activity ([6]; 1 mM Mn^++): 148.4%; Relative Activity ([6]; 10 mM Mn^++): 186.9%; Relative Activity ([7]; 0.01 mM Mn^++): 120.2%; Relative Activity ([7]; 0.1 mM Mn^++): 147.5%; Relative Activity ([7]; 1 mM Mn^++): 224.4%; Relative Activity ([7]; 10 mM Mn^++): 275.6%
